Data taken from US12653896B2, “Targeted dendrimer conjugates” (Starpharma Pty Ltd, priority 2019, dated 2026).

How the values were obtained:
Type in all cases: cell-based, human
MDA-MB-231 cells [1] = assay: In vitro association study (flow cytometry, Cy5), MDA-MB-231; settings: MDA-MB-231, 3.33 nM, in words
Procedure: (§1) MDA-MB-231, MDA-MB-231/HER2 (HER2 knock in) (as described above), or SKOV-3 cells were seeded in a 24-well plate (1×10^5 cells per well) in 500 μL of appropriate growth media with the addition of 10% (v/v) fetal bovine serum (FBS) and incubated with compound 36 or 41 at 3.33 nM, […] atmosphere. After incubation, non-binding/non-associating particles were removed from adherent cells by gently washing with DPBS three times (300 μL/well). Cells were removed from plates by treatment with TrypLE™ Express Enzyme (1×), no phenol red (150 μL/well) for 5-10 min at room temperature. The plates were then placed on ice. Cellular binding and association of sample were then determined through flow cytometry by the acquisition of the signal from Cy5.

MDA-MB-231/HER2 cells = assay: In vitro association study (flow cytometry, Cy5), MDA-MB-231/HER2; settings: MDA-MB-231/HER2, 3.33 nM
Procedure: as §1

SKOV-3 cells = assay: In vitro association study (flow cytometry, Cy5), SKOV-3; settings: SKOV-3, 3.33 nM
Procedure: MDA-MB-231, MDA-MB-231/HER2 (HER2 knock in) (as described above), or SKOV-3 cells were seeded in a 24-well plate (1×10^5 cells per well) in 500 μL of appropriate growth media with the addition of 10% (v/v) fetal bovine serum (FBS) and incubated with compound 36 or 41 at 3.33 nM, with incubation time varied from 1 to 24 h at 37° C. in a 5% CO2 humidified atmosphere. After incubation, non-binding/non-associating particles were removed from adherent cells by gently washing with DPBS three times (300 μL/well). Cells were removed from plates by treatment with TrypLE™ Express Enzyme (1×), no phenol red (150 μL/well) for 5-10 min at room temperature. The plates were then placed on ice. Cellular binding and association of sample were then determined through flow cytometry by the acquisition of the signal from Cy5.

MDA-MB-231 cells [2] = assay: Confocal cellular uptake, MDA-MB-231; settings: MDA-MB-231, 3.33 nM, 24 h
Procedure: MDA-MB-231, MDA-MB-231/HER2 and SKOV-3 cells were plated at 1.0×10^4 cells per well into μ-slide 8 well chambered coverslip (ibidi) and allowed to adhere overnight at 37° C., 5% CO2. compounds 36 and 41 (3.33 nM) were then added and allowed to incubate for 1, 3, 6 and 24 hrs. The cells were washed and then fixed with 1% paraformaldehyde for 20 min at room temperature. The cell membrane was stained with Alexa Fluor 488-wheat germ agglutinin (AF488-WGA, 5 μg mL^−1) in DPBS at room temperature for 10 min. The cell nuclei were counterstained with 4′,6-diamidino-2-phenylindole (DAPI, 2 μg mL^−1) in DPBS at room temperature for 10 min. Fluorescence images and optical sections were collected using a confocal microscope (Leica SP8). Images were processed with Fiji (Image J 1.52n).

With “(MeTzPh)PEG4CO-NHPEG24CO—[N(PN)2][Lys]8[((α-NH-Cy5)1-4(α-NH-Glu-Val-Cit-PAB-MMAE)4-7)(ε-NH-COPEG1100)8] [Compound 36]” the “binding over 24 h” value (MDA-MB-231 cells [1]) was “minimal binding”, the Mean fluorescence intensity (MDA-MB-231/HER2 cells; 24 h, 37° C.) was 16.05±1.89 and the “binding over 24 h” value (MDA-MB-231/HER2 cells; in words) was “minimal binding”. The Mean fluorescence intensity (SKOV-3 cells; 24 h, 37° C.) was 16.4±6.86, the “binding over 24 h” value (SKOV-3 cells; in words) was “minimal binding” and the “association with cells (confocal)” value (MDA-MB-231 cells [2]) was “little”.
